Patent US20030162803A1, “Anhydrovinblastine for the treatment of cancer” (priority 1997, published 2003)
Where a name gives a salt, the structure may show the parent alone. Read-outs that look alike come from different tables or passages of the source.

Experiments:
[1] = system: MCF7 human breast carcinoma; assay: MTT cytotoxicity assay, MCF7; format: cell-based; details: read-out: Drug Ic50
Method: (§1) Cytotoxicity experiments on AHVB were performed as direct comparisons with vincristine and Navelbine™ in order to assess its inherent antineoplastic profile against a variety of tumor cell types relative to other relevant vinca alkaloids. The cytotoxicity of AHVB was investigated in vitro against a panel of tumor cell lines of varying lineage in order to determine the specificity of its antitumor activity with respect to cell type.
(§2) Standard dose response cytotoxicity assays (R. Mosmass, J. Immunol. Meth., 65:55-64, 1983) were utilized to determine the IC50 (drug concentration required to induce 50% inhibition of tumor cell growth) for vincristine, Navelbine™ and AHVB. The indicated cell lines were obtained from either the ATCC or NCI tumor repository and were cultured in tissue culture media by standard techniques well known to those skilled in the art, prior to dilution to a defined cell concentration required for the studies in 96 well plates.
(§3) A wide range of drug concentrations were exposed to tumor cells growing at log phase in 96-well microtitre plates. Cell concentrations depended on the cell line as well as the length of time to be cultured. […] MCF7 cells were plated at a concentration of 7,000 and 1,500 cells per well for studies lasting 3 and 7 days, respectively. H460 cells were plated at a concentration of 2,500 and 1,000 cells per well for studies lasting 3 and 7 days, respectively. K562 cells were plated at a concentration of 1,500 and 10,000 cells per well for studies lasting 1 and 3 days, respectively. LS180 cells were plated at a concentration of 5,000 and 20,00 cells per well for studies lasting 3 and 7 days, respectively.
(§4) Subsequently the plates were incubated for the indicated time period. At specified times, cells were washed and subsequently exposed to the dye inclusion marker MTT (3-(4,5-dimethylthiazol-2-yl)-2,5-diphenyl tetrazolium), which accumulated into viable cells. MTT was added to the cells at a final concentration of 50 μg per well. After a 4 hour incubation, the cells were washed free of media and unreacted MTT, prior to addition of DMSO which was required to solubilize the insoluble formazan precipitate that formed in viable cells. After the sample was mixed through repeated pipetting, the coloured product was measured using a plate reader operating at 570 nm. The absorbance values obtained for cells cultured in the absence of drug was assumed to represent 100% viability.

[2] = system: H460 human non-small cell lung carcinoma; assay: MTT cytotoxicity assay, H460; format: cell-based; details: read-out: Drug Ic50
Method: as §1, §2, §3, §4

[3] = system: K562 human erythroleukaemia; assay: MTT cytotoxicity assay, K562; format: cell-based; details: read-out: Drug Ic50
Method: as §1, §2, §3, §4

[4] = system: LS180 human colon carcinoma; assay: MTT cytotoxicity assay, LS180; format: cell-based; details: read-out: Drug Ic50
Method: as §1, §2, §3, §4

[5] = Range-finding acute (14 day) single dose toxicity in healthy male Nb rats; format: in vivo; details: single intraperitoneal injection; for subacutely toxic dosage (highest dose which allowed survival of all animals in a group): 14 day
Method: Range-finding acute (14 day), single dose toxicity studies were performed in healthy male Nb rats in order to determine the maximum tolerated dose of vincristine sulfate, Navelbine T and AHVB when administered as a single, intraperitoneal injection in these rodents (see Table 2).
To this end, healthy non-tumor bearing male Nb rats (weight range 333-399 grams) were divided in groups of 3 animals. Each group was used to test one drug at one dosage. The volumes within which the drugs were administered depended on the concentration of the drug solution (in saline) and the weight of the animals, and ranged from 0.1-1.0 ml. Saline was used as a control. The highest dose of each drug which allowed survival of all animals in a group (3 out of 3) was taken as the subacutely toxic dosage for the drug, i.e. 0.7 mg/kg for vincristine, 2.0 mg/kg for Navelbine™ and 3.0 mg/kg for AHVB.
The health of the animals was assessed by daily weight measurements in addition to behavioural indications of stress. Animals continued to be monitored throughout the complete 14 day study period. Animals were euthanized in the event of signs of severe stress or weight loss in excess of 20%. All animals were necropsied at the end of the study period or at the time of premature euthanasia.

[6] = system: Nb2-U17 lymphoma transplants; assay: Rat U17 lymphoma model (Nb2-U17 tumor transplants); format: in vivo, Nb rats; details: for anti-tumor potency compared: 50% of individual maximum tolerated doses, FIG. 3
Text: The U17 cell line was originally derived from a transplantable malignant lymphoma that arose spontaneously in male Noble rats (British Columbia Cancer Research Centre Joint Animal Breeding Facility with parents obtained from the National Institutes of Health, Bethesda, Md.). The cell line is prolactin dependent and can readily be cultured in vitro. U17 derived solid tumors are generated by subcutaneous injection (via the trocar method) of a small (2 mm^2) piece of tumor tissue obtained from male Noble rat. Tumor tissue used for the implants arose two weeks after injection of 5×10^6 U17 cells (from culture) subcutaneously in the nape of the neck. For assessing the anti-tumor activity of AHVB, tumor bearing animals (2-4 gm tumors) were given a single treatment of drug and tumor size was measured as a function of time following treatment. The anti-tumor activity was assessed at a series of different doses in order to determine the maximum therapeutic dose of AHVB. Comparative studies between vincristine, vinblastine and AHVB were performed. For these studies anti-tumor activity was determined at the maximum therapeutic dose of each drug.
Cultures of the non-metastatic, pre-T Nb2 lymphoma line originally developed at The University of British Columbia and designated Nb2-U17 (Anticancer Research 14:2485-2492, 1994), and are available from the British Columbia Cancer Research Centre. Cells from exponentially growing Nb2-U17 suspension cultures were injected subcutaneously into methoxyflurane-anaesthetised, mature male Nb rats (5 rats; 310-380 grams; 5×10^6 cells/rat in 1 ml of culture medium) at the nape of the neck using a 1.5″ 20-gauge needle. […]
The oncolytic effects of each of the three drugs were assessed at a subacutely toxic dose, determined for each drug in preliminary studies using non-tumor-bearing, mature male Nb rats, i.e. 3.0, 2.0 and 0.7 mg/kg for AHVB, Navelbine™ and vincristine, respectively as illustrated in FIG. 2. In addition, each drug was assessed at 50% and 25% of its subacutely toxic dose. […]

[7] = system: P388 lymphocytic leukaemia; assay: MTT cytotoxicity assay, P388; details: for IC50: read-out: Drug Ic50
Method: Standard dose response cytotoxicity assays (R. Mosmass, J. Immunol. Meth., 65:55-64, 1983) were utilized to determine the IC50 (drug concentration required to induce 50% inhibition of tumor cell growth) for vincristine, Navelbine™ and AHVB.
A wide range of drug concentrations were exposed to tumor cells growing at log phase in 96-well microtitre plates. Cell concentrations depended on the cell line as well as the length of time to be cultured. Typically, P388 cells were plated at a concentration of 30,000, 2,000 and 750 cells per well for studies lasting 1, 3 and 7 days, respectively. MCF7 cells were plated at a concentration of 7,000 and 1,500 cells per well for studies lasting 3 and 7 days, respectively. H460 cells were plated at a concentration of 2,500 and 1,000 cells per well for studies lasting 3 and 7 days, respectively. K562 cells were plated at a concentration of 1,500 and 10,000 cells per well for studies lasting 1 and 3 days, respectively. LS180 cells were plated at a concentration of 5,000 and 20,00 cells per well for studies lasting 3 and 7 days, respectively. After plating all cell lines were incubated (CO2 incubator at 37° C., 5% CO2) for 24 hours prior to addition of the cytotoxic agent (See Table 1).
as §4
A cytotoxicity curve was generated to estimate the IC50 of vincristine, Navelbine™ and AHVB in the murine P388 cell line (see FIG. 5). In this study, P388 cells derived from an ascitic tumor grown in BDF1 were first separated from red cells employing Ficoll-Paque. Isolated white cells were washed twice then placed in serum containing tissue culture media (1×10^5 cells per ml of RPMI 1640 supplemented with L-glutamine, penicillin, streptomycin and 10% fetal bovine serum) and cultured for 2 hours. All non-adherent cells were collected and that cell population was defined as P388 cells and used for cytotoxicity assays 24 hours later.

[8] = Homo sapiens, 72 h, MCF7, exposure time 3 days
[9] = Homo sapiens, 168 h, MCF7, exposure time 7 days
[10] = Homo sapiens, NCI-H460, 72 h, H460, exposure time 3 days
[11] = Homo sapiens, NCI-H460, 168 h, H460, exposure time 7 days
[12] = Homo sapiens, 24 h, K562, exposure time 1 day
[13] = Homo sapiens, 72 h, K562, exposure time 3 days
[14] = Homo sapiens, 72 h, LS180, exposure time 3 days
[15] = Homo sapiens, 168 h, LS180, exposure time 7 days

| Structure (SMILES) | Mortality (surviving rats/injected rats) ([5]; 10 mg/kg) | subacutely toxic dosage (highest dose which allowed survival of all animals in a group) [5] [mg/kg] | anti-tumor potency compared [6] | IC50 [1, 8] [nM] | IC50 [1, 9] [nM] | IC50 [2, 10] [nM] | IC50 [2, 11] [nM] | IC50 [3, 12] [nM] | IC50 [3, 13] [nM] | IC50 [4, 14] [nM] | IC50 [4, 15] [nM] | IC50 ([7]; Mus musculus, P388, 24 h) [nM] | IC50 ([7]; Mus musculus, P388, 72 h) [nM] | IC50 ([7]; Mus musculus, P388, 168 h) [nM] | other results |
| --- | --- | --- | --- | --- | --- | --- | --- | --- | --- | --- | --- | --- | --- | --- | --- |
| CCC1=C[C@H]2CN(CCc3c([nH]c4ccccc34)[C@@](C(=O)OC)(c3cc4c(cc3OC)N(C)[C@H]3[C@@](O)(C(=O)OC)[C@H](OC(C)=O)[C@]5(CC)C=CCN6CC[C@]43[C@@H]65)C2)C1 [AHVB, 3′,4′-anhydrovinblastine] | 0 surviving rats/injected rats | 3.0 | less potent than vincristine | – | – | – | – | – | – | – | – | – | – | – | IC50 ([1]; MCF7, exposure time 3 days): > 2500 nM; IC50 ([1]; MCF7, exposure time 7 days): 31.3 ± 12.4 nM; IC50 ([2]; H460, exposure time 3 days): 10 nM; IC50 ([2]; H460, exposure time 7 days): 5 nM; IC50 ([3]; K562, exposure time 1 day): > 50 nM; IC50 ([3]; K562, exposure time 3 days): 18.8 ± 8.8 nM; IC50 ([4]; LS180, exposure time 3 days): > 50 nM; IC50 ([4]; LS180, exposure time 7 days): 17.5 nM; Mortality (surviving rats/injected rats) ([5]; 4.4 mg/kg): 0 surviving rats/injected rats; fold less active on per molar basis than vincristine and Navelbine ([7]; in vitro tests, Table I and FIG. 5): 10 to 15 fold; IC50 ([7]; P388, exposure time 1 day): 140 ± 53 nM; IC50 ([7]; P388, exposure time 3 days): 15 ± 8.7 nM; IC50 ([7]; P388, exposure time 7 days): 20 nM |
| CC[C@]1(O)C[C@H]2CN(CCc3c([nH]c4ccccc34)[C@@](C(=O)OC)(c3cc4c(cc3OC)N(C=O)[C@H]3[C@@](O)(C(=O)OC)[C@H](OC(C)=O)[C@]5(CC)C=CCN6CC[C@]43[C@@H]65)C2)C1 [Vincristine, Sulfate of 22-oxovincaleukoblastine] | – | 0.7 | – | > 2500 | 2.6 ± 1.6 | 3.5 | 2.5 | > 50 | 1.5 ± 0.4 | > 50 | 1.5 | 11 ± 3.6 | 1 ± 0.3 | 2 | Mortality (surviving rats/injected rats) ([5]; 1 mg/kg): 0 surviving rats/injected rats; recurrence of tumors ([6]; single intraperitoneal subacutely toxic dose, FIG. 2): not observed |
| CCC1=C[C@@H]2CN(C1)Cc1c([nH]c3ccccc13)[C@@](C(=O)OC)(c1cc3c(cc1OC)N(C)[C@H]1[C@@](O)(C(=O)OC)[C@H](OC(C)=O)[C@]4(CC)C=CCN5CC[C@]31[C@@H]54)C2 [Navelbine, 3′,4′-didehydro-4′-deoxy-C′-norvincaleukoblastine-di-L-tartrate] | 0 surviving rats/injected rats | 2.0 | less potent than AHVB | > 2500 | 2.6 ± 1.6 | 0.3 | > 0.5 | > 50 | 2.5 ± 2.2 | > 50 | 0.5 | 20 | 0.7 ± 0.3 | 2.5 | Mortality (surviving rats/injected rats) ([5]; 5 mg/kg): 0 surviving rats/injected rats |
